This passage reports IC50 results from ChEMBL document CHEMBL3638904, “Pyridine-2-derivatives as smoothened receptor modulators” (2015).

The target of this experiment is Protein smoothened (Homo sapiens, UniProt Q99835). As to the kind of experiment: Radioligand Competition Binding Assay: For the binding competition assay, 100 μL of Assay Buffer was added to all the wells of a 96 well GF/B filter plate (Millipore MultiScreen-HTS-FB cat# MSFBN6B50) for 10 minutes to pre-wet the filter prior to evacuation of the buffer (8 inches Hg for 8 seconds). To the pre-wet wells is added: 20 μL of Assay Buffer, 10 μL diluted test agent, 20 μL of a tritiated Smo antagonist (15 nM stock solution), and 50 μL of membrane preparation (40 μg total protein per well). The plates are sealed and mixed at room temperature for 5 min, incubated at room temperature for 2 hours, then washed 5 times with 100 μL/each of wash buffer and vacuum dried for 8 seconds at 8 inches Hg. The plate is then dried for one hour in a 60° C. oven prior to the addition of 45 μL of Microscint 20 (Packard, #6013621) to each well and incubation at RT for 30 minutes to 1 hour. The plate is counted in a TopCount scintillation counter (Perkin Elmer).
Sequence of Protein smoothened (Q99835 whole entry): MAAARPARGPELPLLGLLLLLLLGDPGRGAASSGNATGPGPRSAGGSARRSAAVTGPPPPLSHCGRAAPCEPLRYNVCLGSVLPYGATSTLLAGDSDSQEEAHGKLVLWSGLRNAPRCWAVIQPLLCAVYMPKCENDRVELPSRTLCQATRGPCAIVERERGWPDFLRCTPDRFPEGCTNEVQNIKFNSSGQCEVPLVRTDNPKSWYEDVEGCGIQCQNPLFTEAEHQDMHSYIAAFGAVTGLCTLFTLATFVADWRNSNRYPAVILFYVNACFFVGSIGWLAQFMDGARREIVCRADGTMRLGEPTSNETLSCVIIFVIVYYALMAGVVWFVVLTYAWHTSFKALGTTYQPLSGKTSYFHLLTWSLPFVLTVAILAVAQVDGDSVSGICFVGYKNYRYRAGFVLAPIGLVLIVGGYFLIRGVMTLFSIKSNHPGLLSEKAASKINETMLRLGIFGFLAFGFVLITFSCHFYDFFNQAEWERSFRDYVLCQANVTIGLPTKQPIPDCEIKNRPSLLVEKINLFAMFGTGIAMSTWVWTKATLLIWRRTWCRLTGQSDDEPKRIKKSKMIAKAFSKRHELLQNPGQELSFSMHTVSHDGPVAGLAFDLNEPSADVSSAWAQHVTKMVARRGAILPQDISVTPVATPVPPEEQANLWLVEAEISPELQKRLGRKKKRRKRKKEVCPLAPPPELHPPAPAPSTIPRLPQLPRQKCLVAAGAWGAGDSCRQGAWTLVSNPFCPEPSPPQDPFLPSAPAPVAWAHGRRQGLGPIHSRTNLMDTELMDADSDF
For the compound `Cc1cccnc1-c1cc(N2CCN(c3ncc(Br)cn3)CC2)ncc1Cl`, the IC50 is 40.3 nM. `Cc1cccnc1-c1cc(N2[C@@H]3CC[C@H]2CN(C(=O)CC(C)(C)O)C3)ncc1Cl` registered an IC50 of 92.2 nM.

The compound `O=C(CCO)NC1CCN(c2ccc(Cl)c(-c3ccccn3)n2)CC1` gave an IC50 of 110 nM. The value for `O=S(=O)(NC1CCN(c2ccc(Cl)c(-c3ccccn3)n2)CC1)C1CC1` was 16.5 nM; that for `Cc1ccc(-c2nc(N3CCN(C(=O)CCS(C)(=O)=O)CC3)ccc2Cl)nc1` was 22.5 nM; that for `Cc1cc(F)cnc1-c1cc(N2CCN(C(=O)CCS(C)(=O)=O)CC2)ncc1Cl` was 7.11 nM.
